Source: US20170150719A1, “FUNGICIDAL PYRAZOLES AND THEIR MIXTURES” (E I DU PONT DE NEMOURS AND COMPANY, priority 2010, published 2017)

Legend:
Septoria tritici = experiment: Test F: wheat leaf blotch, preventive spray on wheat seedlings, visual disease rating; assay type: in vivo; conditions: 100 = 100% disease control, 0 = no disease control relative to the controls
Excerpt: A hyphen (-) indicates no test results.

Botrytis cinerea = experiment: Test A: tomato Botrytis, preventive spray on tomato seedlings, visual disease rating; conditions: tomato Botrytis; 100 = 100% disease control, 0 = no disease control relative to the controls
[1] = test system: Blumeria graminis f. sp. tritici; experiment: Test I: wheat powdery mildew, preventive spray on wheat seedlings, visual disease rating; conditions: wheat powdery mildew; 100 = 100% disease control, 0 = no disease control relative to the controls
Procedure: (§1) General protocol for preparing test suspensions for Tests A-I: the test compounds were first dissolved in acetone in an amount equal to 3% of the final volume and then suspended at the desired concentration (in ppm) in acetone and purified water (50/50 mix by volume) containing 250 ppm of the surfactant Trem® 014 (polyhydric alcohol esters). The resulting test suspensions were then used in Tests A-I. Each test was conducted in triplicate, and the results were averaged. Spraying a 200 ppm test suspension to the point of run-off on the test plants was the equivalent of a rate of about 800 g/ha. Unless otherwise indicated, the rating values indicate a 200 ppm test suspension was used. (An asterisk “*” next to the rating value indicates a 40 ppm test suspension was used.)
The test suspension was sprayed to the point of run-off on wheat seedlings. The following day the seedlings were inoculated with a spore dust of Blumeria graminis f. sp. tritici (also known as Erysiphe graminis f. sp. tritici, the causal agent of wheat powdery mildew) and incubated in a growth chamber at 20° C. for 8 days, after which time visual disease ratings were made.

Phytophthora infestans = experiment: whole plant or invertebrate; assay type: in vivo; conditions: tomato late blight; 100 = 100% disease control, 0 = no disease control relative to the controls
Septoria nodorum = experiment: Test E: Septoria glume blotch, preventive spray on wheat seedlings, visual disease rating; conditions: Septoria glume blotch; 100 = 100% disease control, 0 = no disease control relative to the controls
[2] = test system: Puccinia recondita f. sp. tritici; experiment: Test H: wheat leaf rust, preventive spray on wheat seedlings, visual disease rating; conditions: wheat leaf rust, sprayed the day before inoculation; 100 = 100% disease control, 0 = no disease control
Rhizoctonia solani = experiment: Test D: turf brown patch, preventive spray on creeping bent grass seedlings, disease rating; conditions: 100 = 100% disease control, 0 = no disease control relative to the controls
Procedure: as §1
The test suspension was sprayed to the point of run-off on creeping bent grass (Agrostis sp.) seedlings. The following day the seedlings were inoculated with a bran and mycelial slurry of Rhizoctonia solani (the causal agent of turf brown patch) and incubated in a saturated atmosphere at 27° C. for 48 h, and then moved to a growth chamber at 27° C. for 3 days, after which time disease ratings were made.

Alternaria solani = experiment: Test B: tomato early blight, preventive spray on tomato seedlings, visual disease rating; conditions: tomato early blight; 100 = 100% disease control, 0 = no disease control relative to the controls

Row | Structure (SMILES) | Test F rating (disease control) (Septoria tritici) | Test A rating (disease control) (Botrytis cinerea) | Test I rating (disease control) [1] | Test C rating (disease control) (Phytophthora infestans) | Test E rating (disease control) (Septoria nodorum) | Test H rating (disease control) [2] | Test D rating (disease control) (Rhizoctonia solani) | Test B rating (disease control) (Alternaria solani)
1 | Cc1nn(C)c(Nc2ccccc2F)c1-c1ccc(F)cc1Cl [compound 1] | 100% | 99% | 100% | 0% | 0% | 99% | 99% | 93%
2 | Cc1nn(C)c(Nc2ccc(F)cc2F)c1-c1ccc(F)cc1Cl [compound 2] | 100% | 99% | 99% | 0% | 64% | 100% | 98% | 100%
